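In this assay, cells in 96-well plates receive the compound at five concentrations for 48 hours. Endpoints are linearly interpolated between the surrounding concentrations. Here, GI50 denotes the concentration required for 50% inhibition of growth. TGI: concentration producing complete growth inhibition.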
How the values were obtained:
Assay in all cases: DTP human tumour cell line panel, 48 h
HS 578T breast = tested on: HS 578T breast
COLO 205 colon = tested on: COLO 205 colon
SK-MEL-28 melanoma = tested on: SK-MEL-28 melanoma
SF-539 CNS = tested on: SF-539 CNS
NCI/ADR-RES ovarian = tested on: NCI/ADR-RES ovarian
RPMI-8226 leukemia = tested on: RPMI-8226 leukemia
MDA-MB-435 = tested on: MDA-MB-435
OVCAR-4 ovarian = tested on: OVCAR-4 ovarian
UACC-257 melanoma = tested on: UACC-257 melanoma
OVCAR-3 ovarian = tested on: OVCAR-3 ovarian
SW-620 colon = tested on: SW-620 colon
OVCAR-5 ovarian = tested on: OVCAR-5 ovarian
SN12C renal = tested on: SN12C renal
SNB-19 CNS = tested on: SNB-19 CNS
MDA-MB-468 breast = tested on: MDA-MB-468 breast
M14 melanoma = tested on: M14 melanoma
786-0 renal = tested on: 786-0 renal
MCF7 breast = tested on: MCF7 breast
SK-OV-3 ovarian = tested on: SK-OV-3 ovarian
RXF 393 renal = tested on: RXF 393 renal
IGROV1 ovarian = tested on: IGROV1 ovarian
SR leukemia = tested on: SR leukemia
HOP-62 NSCLC = tested on: HOP-62 NSCLC
NCI-H522 lung = tested on: NCI-H522 lung
MALME-3M melanoma = tested on: MALME-3M melanoma
CAKI-1 renal = tested on: CAKI-1 renal
T-47D breast = tested on: T-47D breast
UACC-62 melanoma = tested on: UACC-62 melanoma
HL-60(TB) leukemia = tested on: HL-60(TB) leukemia
PC-3 prostate = tested on: PC-3 prostate
SNB-75 CNS = tested on: SNB-75 CNS
TK-10 renal = tested on: TK-10 renal
A498 renal = tested on: A498 renal
ACHN renal = tested on: ACHN renal
MDA-MB-231 breast = tested on: MDA-MB-231 breast
K-562 leukemia = tested on: K-562 leukemia
HCT-15 colon = tested on: HCT-15 colon
KM12 colon = tested on: KM12 colon
SF-295 CNS = tested on: SF-295 CNS
HCT-116 colon = tested on: HCT-116 colon
MOLT-4 leukemia = tested on: MOLT-4 leukemia
EKVX NSCLC = tested on: EKVX NSCLC
LOX IMVI melanoma = tested on: LOX IMVI melanoma
SK-MEL-5 melanoma = tested on: SK-MEL-5 melanoma
NCI-H460 lung = tested on: NCI-H460 lung
UO-31 renal = tested on: UO-31 renal
NCI-H226 lung = tested on: NCI-H226 lung
NCI-H23 lung = tested on: NCI-H23 lung
A549 NSCLC = tested on: A549 NSCLC
OVCAR-8 ovarian = tested on: OVCAR-8 ovarian
HOP-92 NSCLC = tested on: HOP-92 NSCLC
CCRF-CEM leukemia = tested on: CCRF-CEM leukemia
BT-549 breast = tested on: BT-549 breast
SF-268 CNS = tested on: SF-268 CNS
HT29 colon = tested on: HT29 colon
HCC-2998 colon = tested on: HCC-2998 colon
DU-145 prostate = tested on: DU-145 prostate
SK-MEL-2 melanoma = tested on: SK-MEL-2 melanoma
U251 CNS = tested on: U251 CNS

## Cc1ccc(-c2nc(Nc3ccccc3C(=O)O)c3ccccc3n2)cc1
HS 578T breast
  GI50: 10.2 µM
  TGI: 67 µM
COLO 205 colon
  GI50: 17.8 µM
  TGI: 41 µM
SK-MEL-28 melanoma
  GI50: 15.9 µM
  TGI: 97.4 µM
SF-539 CNS
  GI50: 11.9 µM
  TGI: 28.3 µM
NCI/ADR-RES ovarian
  GI50: 16.8 µM
  TGI: 98.5 µM
RPMI-8226 leukemia
  GI50: 4.44 µM
  TGI: > 100 µM
MDA-MB-435
  GI50: 13.9 µM
  TGI: 87.2 µM
OVCAR-4 ovarian
  GI50: 8.77 µM
  TGI: > 100 µM
UACC-257 melanoma
  GI50: 15.3 µM
  TGI: 90.3 µM
OVCAR-3 ovarian
  GI50: 13.1 µM
  TGI: 51.3 µM
SW-620 colon
  GI50: 18.2 µM
  TGI: > 100 µM
OVCAR-5 ovarian
  GI50: 21.8 µM
  TGI: 68.9 µM
SN12C renal
  GI50: 11 µM
  TGI: 60.4 µM
SNB-19 CNS
  GI50: 8.09 µM
  TGI: 81.7 µM
MDA-MB-468 breast
  GI50: 8.29 µM
  TGI: 42.3 µM
M14 melanoma
  GI50: 15.5 µM
  TGI: 77.4 µM
786-0 renal
  GI50: 17.1 µM
  TGI: > 100 µM
MCF7 breast
  GI50: 9.41 µM
  TGI: 89.9 µM
SK-OV-3 ovarian
  GI50: 11.9 µM
  TGI: 55.3 µM
RXF 393 renal
  GI50: 13.1 µM
  TGI: 65.9 µM
IGROV1 ovarian
  GI50: 19.1 µM
  TGI: 87.1 µM
SR leukemia
  GI50: 10.3 µM
  TGI: > 100 µM
HOP-62 NSCLC
  GI50: 10.8 µM
  TGI: 33.7 µM
NCI-H522 lung
  GI50: 4.35 µM
  TGI: 27.1 µM
MALME-3M melanoma
  GI50: 15.6 µM
  TGI: 64.5 µM
CAKI-1 renal
  GI50: 13.8 µM
  TGI: > 100 µM
T-47D breast
  GI50: 6.29 µM
  TGI: 70 µM
UACC-62 melanoma
  GI50: 10.2 µM
  TGI: 27 µM
HL-60(TB) leukemia
  GI50: 12.9 µM
  TGI: 75.4 µM
PC-3 prostate
  GI50: 12.7 µM
  TGI: > 100 µM
SNB-75 CNS
  GI50: 1.36 µM
  TGI: 80.3 µM
TK-10 renal
  GI50: 29.2 µM
  TGI: > 100 µM
A498 renal
  GI50: 19.9 µM
  TGI: 58.1 µM
ACHN renal
  GI50: 6.44 µM
  TGI: 91.1 µM
MDA-MB-231 breast
  GI50: 17.2 µM
  TGI: 59.7 µM
K-562 leukemia
  GI50: 7.05 µM
  TGI: > 100 µM
HCT-15 colon
  GI50: 5.83 µM
  TGI: 28.7 µM
KM12 colon
  GI50: 13.7 µM
  TGI: 81.2 µM
SF-295 CNS
  GI50: 7.04 µM
  TGI: 27 µM
HCT-116 colon
  GI50: 10.1 µM
  TGI: 36.1 µM
MOLT-4 leukemia
  GI50: 11.7 µM
  TGI: > 100 µM
EKVX NSCLC
  GI50: 8.89 µM
  TGI: 56.2 µM
LOX IMVI melanoma
  GI50: 10.2 µM
  TGI: 31.6 µM
SK-MEL-5 melanoma
  GI50: 5.32 µM
  TGI: 20.3 µM
NCI-H460 lung
  GI50: 8.52 µM
  TGI: 27.7 µM
UO-31 renal
  GI50: 7.33 µM
  TGI: 77.9 µM
NCI-H226 lung
  GI50: 10.2 µM
  TGI: 54.2 µM
NCI-H23 lung
  GI50: 15.7 µM
  TGI: 44.4 µM
A549 NSCLC
  GI50: 8.31 µM
  TGI: > 100 µM
OVCAR-8 ovarian
  GI50: 18.2 µM
  TGI: > 100 µM
HOP-92 NSCLC
  GI50: 2.85 µM
  TGI: 29.3 µM
CCRF-CEM leukemia
  GI50: 5.72 µM
  TGI: > 100 µM
BT-549 breast
  GI50: 14.6 µM
  TGI: 33.8 µM
SF-268 CNS
  GI50: 14.3 µM
  TGI: > 100 µM
HT29 colon
  GI50: 17.9 µM
  TGI: > 100 µM
HCC-2998 colon
  GI50: 12.4 µM
  TGI: 36 µM
DU-145 prostate
  GI50: 17.7 µM
  TGI: > 100 µM
SK-MEL-2 melanoma
  GI50: 3.65 µM
  TGI: 15.6 µM
U251 CNS
  GI50: 5.58 µM
  TGI: 35 µM

From PubChem BioAssay (NCI)
